Assay results reported in patent US20150272939A1, “Identification of Small Molecule Inhibitors of Jumonji AT-Rich Interactive Domain 1A (JARID1A) and 1B (JARID1B) Histone Demethylase” (Yale University, priority 2012, published 2015).
Counter-ions that a name gives are not always drawn. Like-named read-outs stand apart in the source and are kept apart here.

Assays:
JARID1B = target: T1, JARID1B (Homo sapiens, UniProt Q9UGL1); assay: FLAG-JARID1B histone demethylase assay with AlphaScreen detection (HTS and dose response); format: biochemical; details: for Assay − Artifact Signal (percent): assay signal minus artifact signal; for inhibition at 20 µM: read-out: Inhibitory effect (percent); for Assay Signal (percent) / Validation result of HTS active: effect of the compound in the JARID1B AlphaScreen demethylase assay: validation of HTS actives; for Assay Signal (percent): effect of compound in JARID1B AlphaScreen assay; for Validation result of HTS active: effect of the compound in the JARID1B AlphaScreen demethylase assay: total signal before subtraction of artifact signal;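 for Assay Signal (percent): compound tested at 20 µM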;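 for Assay − Artifact Signal (percent): compound tested at 20 µM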;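 for all read-outs here: FLAG-tagged JARID1B at 4 nM acting on a biotinylated H3K4me3 peptide, demethylation read by AlphaScreen luminescence, with hits checked against bio-H3K4me2 without enzyme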
T1 construct: The FLAG tagged full length JARID1B enzyme was expressed in Sf21 insect cells using FLAG-JARID1B baculoviruses; FLAG (N); made in house; host or cells: Sf21 insect cells (baculovirus)

[1] = AlphaScreen counterscreen against bio-H3K4me2 peptide in the absence of enzyme (artifact signal); details: for Artifact Signal (percent): effect of the compound when incubated with bio-H3K4me2 peptide (counterscreen, no enzyme); for Artifact signal: effect of the compound when it is incubated with bio-H3K4me2 peptide: counterscreen, no enzyme;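 for all read-outs here: counterscreen run without enzyme against bio-H3K4me2 peptide to remove false positive hits from the JARID1 demethylase AlphaScreen screen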
[2] = high-throughput screen, compound 20 μM, standard demethylase conditions (10 μM α-KG, 50 μM Fe (II))

T1 sequence (Q9UGL1 whole entry): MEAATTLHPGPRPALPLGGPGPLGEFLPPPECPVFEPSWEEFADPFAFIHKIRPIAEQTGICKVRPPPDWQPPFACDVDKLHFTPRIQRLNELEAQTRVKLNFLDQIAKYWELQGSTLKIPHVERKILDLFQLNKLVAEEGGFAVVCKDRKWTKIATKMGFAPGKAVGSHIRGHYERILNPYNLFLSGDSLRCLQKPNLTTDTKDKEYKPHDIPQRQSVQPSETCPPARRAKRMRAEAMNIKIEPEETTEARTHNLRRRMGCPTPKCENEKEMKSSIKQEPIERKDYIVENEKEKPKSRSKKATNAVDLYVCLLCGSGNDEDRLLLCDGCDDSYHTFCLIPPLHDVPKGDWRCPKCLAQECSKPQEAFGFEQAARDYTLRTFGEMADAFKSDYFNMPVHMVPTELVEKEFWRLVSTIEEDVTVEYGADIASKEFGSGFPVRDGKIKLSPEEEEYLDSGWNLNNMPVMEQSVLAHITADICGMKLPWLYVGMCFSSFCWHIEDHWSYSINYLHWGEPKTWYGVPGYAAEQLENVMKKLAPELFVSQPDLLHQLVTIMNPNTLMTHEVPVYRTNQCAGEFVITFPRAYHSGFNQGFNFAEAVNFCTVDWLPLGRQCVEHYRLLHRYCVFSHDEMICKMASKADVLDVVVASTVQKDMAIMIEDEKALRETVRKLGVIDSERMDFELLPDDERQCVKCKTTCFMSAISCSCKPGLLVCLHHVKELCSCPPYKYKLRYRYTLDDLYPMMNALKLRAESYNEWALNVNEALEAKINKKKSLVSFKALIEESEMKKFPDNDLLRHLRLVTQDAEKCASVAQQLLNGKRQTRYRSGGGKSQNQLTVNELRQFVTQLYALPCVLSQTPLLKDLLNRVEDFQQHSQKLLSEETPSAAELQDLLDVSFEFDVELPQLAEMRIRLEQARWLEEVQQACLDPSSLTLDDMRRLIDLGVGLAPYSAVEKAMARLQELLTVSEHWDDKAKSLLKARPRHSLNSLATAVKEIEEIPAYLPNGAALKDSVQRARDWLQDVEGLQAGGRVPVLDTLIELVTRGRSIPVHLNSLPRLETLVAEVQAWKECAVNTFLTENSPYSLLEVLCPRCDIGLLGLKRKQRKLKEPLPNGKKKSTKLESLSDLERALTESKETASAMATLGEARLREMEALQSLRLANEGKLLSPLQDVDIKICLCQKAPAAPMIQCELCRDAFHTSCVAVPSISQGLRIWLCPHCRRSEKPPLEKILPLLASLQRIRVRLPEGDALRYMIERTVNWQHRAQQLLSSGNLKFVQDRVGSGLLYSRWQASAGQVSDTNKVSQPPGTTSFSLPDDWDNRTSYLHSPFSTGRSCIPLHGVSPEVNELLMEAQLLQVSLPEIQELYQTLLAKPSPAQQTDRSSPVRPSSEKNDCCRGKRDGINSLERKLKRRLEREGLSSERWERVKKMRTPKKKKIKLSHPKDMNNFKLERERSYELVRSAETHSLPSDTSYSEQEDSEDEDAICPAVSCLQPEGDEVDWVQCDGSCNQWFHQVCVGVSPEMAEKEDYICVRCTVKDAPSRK

For `CC(=O)Oc1c([N+](=O)[O-])cc2c(c1Br)CCCC2` [YU151714], the “Assay − Artifact Signal (percent)” value (JARID1B) was 12.20%, the inhibition at 20 µM (JARID1B; [2]) was 32.3% and the “Assay Signal (percent)” value (JARID1B) was 13.44%. The “Artifact Signal (percent)” value [1] was 1.24%.

In the case of `O=C(NC1CCCCC1)c1ccc(NC(=O)c2ccccc2O)cc1` [YU154737], the “Assay − Artifact Signal (percent)” value (JARID1B) is reported as 23.65%, the inhibition at 20 µM (JARID1B; [2]) is reported as 45% and the “Assay Signal (percent)” value (JARID1B) is reported as 28.23%. The “Artifact Signal (percent)” value [1] was 4.58%.

For `CCCCC(=O)Nc1ccc(N(C)CCc2c(C)nn(C)c2C)c(C(=O)O)c1` [YU208232], the “Assay − Artifact Signal (percent)” value (JARID1B) was 19.26%, the inhibition at 20 µM (JARID1B; [2]) was 50.5% and the “Assay Signal (percent)” value (JARID1B) was 37.92%. The “Artifact Signal (percent)” value [1] was 18.67%.

In the case of `O=c1c2cc(O)c(O)cc2oc2cc(O)c([C@@H]3O[C@H](CO)[C@@H](O)[C@H](O)[C@H]3O)c(O)c12` [YU153356, MANGIFERIN, reference compound], the “Assay − Artifact Signal (percent)” value (JARID1B) is reported as 21.62%, the “Assay Signal (percent)” value (JARID1B) is reported as 98.21% and the “Artifact Signal (percent)” value [1] is reported as 76.59%.

For `c1ccc(-c2nn3c(Cn4cnc5ccccc54)nnc3s2)cc1` [YU153935], the “Assay − Artifact Signal (percent)” value (JARID1B) was 21.66%, the inhibition at 20 µM (JARID1B; [2]) was 40.5% and the “Assay Signal (percent)” value (JARID1B) was 14.67%. For the same compound, the “Artifact Signal (percent)” value [1] was −6.99%.

With `C#CCOc1c(Cl)cc(C(=S)N2CCOCC2)cc1OC` [YU153110] the “Assay − Artifact Signal (percent)” value (JARID1B) was 37.96%, the inhibition at 20 µM (JARID1B; [2]) was 45.2% and the “Assay Signal (percent)” value (JARID1B) was 34.87%. For the same compound, the “Artifact Signal (percent)” value [1] was −3.09%.

In the case of `NNC(=O)c1ccncc1` [YU033872, ISONIAZID, reference compound], the “Assay − Artifact Signal (percent)” value (JARID1B) is reported as 51.63%, the inhibition at 20 µM (JARID1B; [2]) is reported as 54.5% and the “Assay Signal (percent)” value (JARID1B) is reported as 45.10%. For the same compound, the “Artifact Signal (percent)” value [1] was −6.34%.

With `COC(=O)C1=C(C)NC(=O)C1(Nc1nccs1)C(F)(F)F` (stereo not drawn) [YU152562] the inhibition at 20 µM (JARID1B; [2]) was 39.4%, the “Validation result of HTS active: effect of the compound in the JARID1B AlphaScreen demethylase assay” value (shortened to “Validation result of HTS active”) (JARID1B) was −8.43 and the “Artifact signal: effect of the compound when it is incubated with bio-H3K4me2 peptide” value (shortened to “Artifact signal: effect of the compound”) [1] was −15.40.

With `COc1c(O)cc2c(c1O)[C@@H]1O[C@H](CO)[C@@H](O)[C@H](O)[C@H]1OC2=O` [YU155621, BERGENIN, reference compound] the “Assay − Artifact Signal (percent)” value (JARID1B) was 73.02%, the inhibition at 20 µM (JARID1B; [2]) was 96.8% and the “Assay Signal (percent)” value (JARID1B) was 93.44%. The “Artifact Signal (percent)” value [1] was 20.42%.

With `COc1cc(C=O)ccc1OC(=O)c1ccncc1` [YU146698] the “Assay − Artifact Signal (percent)” value (JARID1B) was 53.39%, the inhibition at 20 µM (JARID1B; [2]) was 52.5% and the “Assay Signal (percent)” value (JARID1B) was 48.27%. For the same compound, the “Artifact Signal (percent)” value [1] was −5.12%.

In the case of `O=C(O[C@@H]1Cc2c(O)cc(O)cc2O[C@@H]1c1cc(O)c(=O)c2c(O)c(O)cc([C@H]3Oc4cc(O)cc(O)c4C[C@H]3O)c2c1)c1cc(O)c(O)c(O)c1` [YU155347, THEAFLAVIN MONOGALLATES, reference compound], the inhibition at 20 µM (JARID1B; [2]) is reported as 104%, the “Validation result of HTS active” value (JARID1B) is reported as 103.69 and the “Artifact signal: effect of the compound” value [1] is reported as 95.69.

With `Cc1cc(OCc2nc3ccccc3s2)ccc1N` [YU147615] the “Assay − Artifact Signal (percent)” value (JARID1B) was 13.88%, the inhibition at 20 µM (JARID1B; [2]) was 40.4% and the “Assay Signal (percent)” value (JARID1B) was 14.43%. The “Artifact Signal (percent)” value [1] was 0.54%.

With `C=C1c2cccc(O)c2C(=O)C2=C(O)[C@]3(O)C(=O)C(C(N)=O)=C(O)[C@@H](N(C)C)[C@@H]3[C@@H](O)[C@H]12` [YU034167, METHACYCLINE HYDROCHLORIDE, reference compound] the inhibition at 20 µM (JARID1B; [2]) was 51.5%, the “Validation result of HTS active” value (JARID1B) was 62.51 and the “Artifact signal: effect of the compound” value [1] was 56.96.

In the case of `C=NC(C(=O)N[C@H]1C(=O)N2C1SC(C)(C)C2C(=O)O)c1ccccc1` (stereo in doubt) [YU034263, METAMPICILLIN SODIUM, reference compound], the “Assay − Artifact Signal (percent)” value (JARID1B) is reported as 24.14%, the inhibition at 20 µM (JARID1B; [2]) is reported as 95.6% and the “Assay Signal (percent)” value (JARID1B) is reported as 24.27%. The “Validation result of HTS active” value (JARID1B) was 3.14, the “Artifact signal: effect of the compound” value [1] was 0.44 and the “Artifact Signal (percent)” value [1] was 0.13%.

With `CN(C)CCCN1c2ccccc2Sc2ccc(C(F)(F)F)cc21` [YU034370, TRIFLUPROMAZINE HYDROCHLORIDE, reference compound] the inhibition at 20 µM (JARID1B; [2]) was 66%, the “Validation result of HTS active” value (JARID1B) was 4.23 and the “Artifact signal: effect of the compound” value [1] was −2.95.

In the case of `O=C(OC[C@H]1O[C@@H](OC(=O)c2cc(O)c(O)c(OC(=O)c3cc(O)c(O)c(O)c3)c2)[C@H](OC(=O)c2cc(O)c(O)c(OC(=O)c3cc(O)c(O)c(O)c3)c2)[C@@H](OC(=O)c2cc(O)c(O)c(OC(=O)c3cc(O)c(O)c(O)c3)c2)[C@@H]1OC(=O)c1cc(O)c(O)c(OC(=O)c2cc(O)c(O)c(O)c2)c1)c1cc(O)c(O)c(OC(=O)c2cc(O)c(O)c(O)c2)c1` (stereo in doubt) [YU034398, TANNIC ACID, reference compound], the inhibition at 20 µM (JARID1B; [2]) is reported as 105%, the “Validation result of HTS active” value (JARID1B) is reported as 104.83 and the “Artifact signal: effect of the compound” value [1] is reported as 99.54.

For `CCCCOc1ccc(NC(=O)CSc2nnnn2C)cc1` [YU152624], the inhibition at 20 µM (JARID1B; [2]) was 37.7%, the “Validation result of HTS active” value (JARID1B) was −1.90 and the “Artifact signal: effect of the compound” value [1] was −4.45.

In the case of `C=CCNCCCCOc1cccc(OCC)c1` [YU146294], the “Assay − Artifact Signal (percent)” value (JARID1B) is reported as 8.13%, the inhibition at 20 µM (JARID1B; [2]) is reported as 36.5% and the “Assay Signal (percent)” value (JARID1B) is reported as 14.08%. The “Artifact Signal (percent)” value [1] was 5.94%.

With `O=C(O[C@@H]1Cc2c(O)cc(O)cc2O[C@@H]1c1cc(O)c(O)c(O)c1)c1cc(O)c(O)c(O)c1` [YU153090, EPIGALLOCATECHIN-3- MONOGALLATE, reference compound] the “Validation result of HTS active” value (JARID1B) was 95.83 and the “Artifact signal: effect of the compound” value [1] was 90.25.

In the case of `NC[C@H](O)c1ccc(O)c(O)c1` [YU033927, NOREPINEPHRINE, reference compound], the “Assay − Artifact Signal (percent)” value (JARID1B) is reported as 37.97%, the inhibition at 20 µM (JARID1B; [2]) is reported as 58.5% and the “Assay Signal (percent)” value (JARID1B) is reported as 39.80%. For the same compound, the “Artifact Signal (percent)” value [1] was 1.83%.

For `CN[C@@H]1[C@H](O[C@H]2O[C@H](CO)[C@@H](N)[C@H](O)[C@H]2O)O[C@H]2C[C@@H](N)[C@H](O[C@@H]3[C@H](O)[C@@H](O)[C@H](N)C[C@@H]3N)O[C@@H]2[C@@H]1O` (stereo in doubt) [YU155086, APRAMYCIN, reference compound], the inhibition at 20 µM (JARID1B; high-throughput screen, compound 20 μM, IDs marked *: additional hits under reaction condition with 1 mM α-KG) was 43.2%, the “Validation result of HTS active” value (JARID1B) was −19.45 and the “Artifact signal: effect of the compound” value [1] was −4.67.

With `COc1ccc2nc(NCc3ccncc3)sc2c1` [YU147704] the “Assay − Artifact Signal (percent)” value (JARID1B) was 54.05%, the inhibition at 20 µM (JARID1B; [2]) was 70.4% and the “Assay Signal (percent)” value (JARID1B) was 55.47%. For the same compound, the “Artifact Signal (percent)” value [1] was 1.42%.

With `CC(=O)Nc1ccccc1NC(=O)c1ccc2c(c1)OCO2` [YU149951] the “Assay − Artifact Signal (percent)” value (JARID1B) was 8.46%, the inhibition at 20 µM (JARID1B; [2]) was 84.7% and the “Assay Signal (percent)” value (JARID1B) was 6.61%. The “Artifact Signal (percent)” value [1] was −1.85%.

In the case of `c1ccc(CCc2nn3c(-c4ccncc4)nnc3s2)cc1` [YU150981], the “Assay − Artifact Signal (percent)” value (JARID1B) is reported as 48.70%, the inhibition at 20 µM (JARID1B; [2]) is reported as 71.2% and the “Assay Signal (percent)” value (JARID1B) is reported as 52.35%. The “Artifact Signal (percent)” value [1] was 3.65%.

With `COc1ccc2c(CCN)c[nH]c2c1.Cl` [YU145407] the “Assay − Artifact Signal (percent)” value (JARID1B) was 8.55%, the inhibition at 20 µM (JARID1B; [2]) was 43% and the “Assay Signal (percent)” value (JARID1B) was 6.76%. For the same compound, the “Artifact Signal (percent)” value [1] was −1.79%.

With “CARMINIC ACID [YU155214, reference compound]” the “Assay − Artifact Signal (percent)” value (JARID1B) was 54.26%, the “Inhibitory effect (percent)” value (JARID1B; [2]) was 65.23% and the “Assay Signal (percent)” value (JARID1B) was 78.58%. The “Artifact Signal (percent)” value [1] was 24.32%.

In the case of `Cc1noc2c1C(c1ccc(O)c(O)c1)C1=C(CC(C)(C)CC1=O)N2` (stereo not drawn) [YU185530], the “Assay − Artifact Signal (percent)” value (JARID1B) is reported as 36.51%, the inhibition at 20 µM (JARID1B; [2]) is reported as 46.5% and the “Assay Signal (percent)” value (JARID1B) is reported as 38.23%. For the same compound, the “Artifact Signal (percent)” value [1] was 1.72%.

For `O=C(NC(=S)NCc1ccccc1)C1CCCC1` [YU147054], the “Assay − Artifact Signal (percent)” value (JARID1B) was 24.52%, the inhibition at 20 µM (JARID1B; [2]) was 33.9% and the “Assay Signal (percent)” value (JARID1B) was 22.98%. For the same compound, the “Artifact Signal (percent)” value [1] was −1.54%.

For `N#Cc1c(O)nc(S)nc1-c1ccccc1` [YU145521], the “Assay − Artifact Signal (percent)” value (JARID1B) was 9.91%, the inhibition at 20 µM (JARID1B; [2]) was 68.2% and the “Assay Signal (percent)” value (JARID1B) was 6.99%. For the same compound, the “Artifact Signal (percent)” value [1] was −2.92%.
